# From PubChem BioAssay (NCI)
#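 Cultured in 96-well plates, cells were exposed to test compound for 48 hours across five concentrations. Here, GI50 denotes the concentration required for 50% inhibition of growth. Definition used: TGI = concentration required for complete inhibition of growth.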
# What was measured:
# Assay in all cases: NCI tumour cell line growth inhibition, 48 h
# [1] = tested on: A498 renal
# [2] = tested on: A549 NSCLC
# [3] = tested on: ACHN renal
# [4] = tested on: CAKI-1 renal
# [5] = tested on: CCRF-CEM leukemia
# [6] = tested on: COLO 205 colon
# [7] = tested on: DU-145 prostate
# [8] = tested on: EKVX NSCLC
# [9] = tested on: HL-60(TB) leukemia
# [10] = tested on: HOP-92 NSCLC
# [11] = tested on: HS 578T breast
# [12] = tested on: IGROV1 ovarian
# [13] = tested on: K-562 leukemia
# [14] = tested on: KM12 colon
# [15] = tested on: MALME-3M melanoma
# [16] = tested on: MDA-MB-231 breast
# [17] = tested on: MDA-MB-435
# [18] = tested on: NCI-H23 lung
# [19] = tested on: NCI-H460 lung
# [20] = tested on: OVCAR-4 ovarian
# [21] = tested on: OVCAR-5 ovarian
# [22] = tested on: PC-3 prostate
# [23] = tested on: RXF 393 renal
# [24] = tested on: SF-268 CNS
# [25] = tested on: SF-295 CNS
# [26] = tested on: SF-539 CNS
# [27] = tested on: SK-MEL-2 melanoma
# [28] = tested on: SK-MEL-28 melanoma
# [29] = tested on: SK-OV-3 ovarian
# [30] = tested on: SN12C renal
# [31] = tested on: SNB-75 CNS
# [32] = tested on: SW-620 colon
# [33] = tested on: T-47D breast
# [34] = tested on: U251 CNS
# [35] = tested on: UACC-257 melanoma
# [36] = tested on: UACC-62 melanoma
# [37] = tested on: UO-31 renal
# [38] = tested on: 786-0 renal
# [39] = tested on: HCC-2998 colon
# [40] = tested on: HCT-116 colon
# [41] = tested on: HCT-15 colon
# [42] = tested on: HOP-62 NSCLC
# [43] = tested on: HT29 colon
# [44] = tested on: LOX IMVI melanoma
# [45] = tested on: MCF7 breast
# [46] = tested on: MOLT-4 leukemia
# [47] = tested on: NCI-H226 lung
# [48] = tested on: NCI-H522 lung
# [49] = tested on: NCI/ADR-RES ovarian
# [50] = tested on: OVCAR-3 ovarian
# [51] = tested on: OVCAR-8 ovarian
# [52] = tested on: RPMI-8226 leukemia
# [53] = tested on: SK-MEL-5 melanoma
# [54] = tested on: SNB-19 CNS
# [55] = tested on: TK-10 renal
structure (smiles),measurement,setting,value
C#CC[C@@H]1C[C@]2(C)[C@H]3CC=C4[C@H]5CC(C)(C)CC[C@]5(C(=O)NCCCCN)CC[C@@]4(C)[C@]3(C)CC[C@H]2C(C)(C)[C@H]1OC(C)=O,GI50,[1],1.8 µM
same,TGI,[1],3.21 µM
same,GI50,[2],1.66 µM
same,TGI,[2],3.27 µM
same,GI50,[3],1.73 µM
same,TGI,[3],3.11 µM
same,GI50,[4],1.54 µM
same,TGI,[4],2.9 µM
same,GI50,[5],1.93 µM
same,TGI,[5],4.55 µM
same,GI50,[6],1.72 µM
same,TGI,[6],3.32 µM
same,GI50,[7],1.7 µM
same,TGI,[7],3.15 µM
same,GI50,[8],1.69 µM
same,TGI,[8],3.3 µM
same,GI50,[9],1.77 µM
same,TGI,[9],3.71 µM
same,GI50,[10],1.33 µM
same,TGI,[10],2.81 µM
same,GI50,[11],1.73 µM
same,TGI,[11],3.71 µM
same,GI50,[12],1.62 µM
same,TGI,[12],3.02 µM
same,GI50,[13],1.91 µM
same,TGI,[13],6.16 µM
same,GI50,[14],1.68 µM
same,TGI,[14],3.18 µM
same,GI50,[15],1.55 µM
same,TGI,[15],3.04 µM
same,GI50,[16],1.61 µM
same,TGI,[16],3.1 µM
same,GI50,[17],1.69 µM
same,TGI,[17],3.1 µM
same,GI50,[18],1.75 µM
same,TGI,[18],3.47 µM
same,GI50,[19],1.84 µM
same,TGI,[19],3.47 µM
same,GI50,[20],1.71 µM
same,TGI,[20],3.23 µM
same,GI50,[21],1.62 µM
same,TGI,[21],2.99 µM
same,GI50,[22],1.55 µM
same,TGI,[22],2.93 µM
same,GI50,[23],1.52 µM
same,TGI,[23],2.95 µM
same,GI50,[24],1.73 µM
same,TGI,[24],3.62 µM
same,GI50,[25],1.82 µM
same,TGI,[25],3.29 µM
same,GI50,[26],1.68 µM
same,TGI,[26],3.1 µM
same,GI50,[27],1.78 µM
same,TGI,[27],3.45 µM
same,GI50,[28],1.74 µM
same,TGI,[28],3.17 µM
same,GI50,[29],1.72 µM
same,TGI,[29],3.18 µM
same,GI50,[30],1.76 µM
same,TGI,[30],3.28 µM
same,GI50,[31],1.38 µM
same,TGI,[31],2.69 µM
same,GI50,[32],1.71 µM
same,TGI,[32],3.39 µM
same,GI50,[33],1.72 µM
same,TGI,[33],3.48 µM
same,GI50,[34],1.69 µM
same,TGI,[34],3.21 µM
same,GI50,[35],1.87 µM
same,TGI,[35],3.61 µM
same,GI50,[36],1.86 µM
same,TGI,[36],3.34 µM
same,GI50,[37],1.41 µM
same,TGI,[37],2.71 µM
C[C@@H]1COCCN1c1cc(C2(S(C)(=N)=O)CC2)nc(-c2ccnc3[nH]ccc23)n1 (some centres not stated),GI50,[38],1.25 µM
same,TGI,[38],96.8 µM
same,GI50,[1],0.146 µM
same,TGI,[1],1.69 µM
same,GI50,[2],3.35 µM
same,TGI,[2],35.2 µM
same,GI50,[3],0.592 µM
same,TGI,[3],4.3 µM
same,GI50,[4],2.34 µM
same,TGI,[4],25.5 µM
same,GI50,[5],1.55 µM
same,TGI,[5],> 100 µM
same,GI50,[6],11.7 µM
same,TGI,[6],29 µM
same,GI50,[7],3.06 µM
same,TGI,[7],> 100 µM
same,GI50,[39],2.39 µM
same,TGI,[39],> 100 µM
same,GI50,[40],4.05 µM
same,TGI,[40],> 100 µM
same,GI50,[41],3.98 µM
same,TGI,[41],> 100 µM
same,GI50,[9],4 µM
same,TGI,[9],> 100 µM
same,GI50,[42],2.94 µM
same,TGI,[42],36.1 µM
same,GI50,[10],2.49 µM
same,TGI,[10],31.6 µM
same,GI50,[11],2.77 µM
same,TGI,[11],22.1 µM
same,GI50,[43],6.95 µM
same,TGI,[43],> 100 µM
same,GI50,[12],3.63 µM
same,TGI,[12],63.1 µM
same,GI50,[13],3.22 µM
same,TGI,[13],> 100 µM
same,GI50,[14],5.72 µM
same,TGI,[14],63.1 µM
same,GI50,[44],1.63 µM
same,TGI,[44],12.7 µM
same,GI50,[15],5.55 µM
same,TGI,[15],34 µM
same,GI50,[45],0.528 µM
same,TGI,[45],70.2 µM
same,GI50,[16],3.92 µM
same,TGI,[16],74.7 µM
same,GI50,[17],3.74 µM
same,TGI,[17],21.8 µM
same,GI50,[46],2.35 µM
same,TGI,[46],49.4 µM
same,GI50,[47],3.94 µM
same,TGI,[47],76.8 µM
same,GI50,[18],2.62 µM
same,TGI,[18],34.3 µM
same,GI50,[19],1.07 µM
same,TGI,[19],20.6 µM
same,GI50,[48],6.92 µM
same,TGI,[48],43.1 µM
same,GI50,[49],23.3 µM
same,TGI,[49],88.8 µM
same,GI50,[50],5.76 µM
same,TGI,[50],38.9 µM
same,GI50,[20],1.86 µM
same,TGI,[20],23.7 µM
same,GI50,[21],3.3 µM
same,TGI,[21],16.7 µM
same,GI50,[51],5.41 µM
same,TGI,[51],58.5 µM
same,GI50,[22],12.8 µM
same,TGI,[22],74.2 µM
same,GI50,[52],5.73 µM
same,TGI,[52],36.1 µM
same,GI50,[23],1.46 µM
same,TGI,[23],6.76 µM
same,GI50,[24],6.17 µM
same,TGI,[24],39.6 µM
same,GI50,[25],1.66 µM
same,TGI,[25],19.8 µM
same,GI50,[26],0.86 µM
same,TGI,[26],3.5 µM
same,GI50,[27],4.59 µM
same,TGI,[27],18.9 µM
same,GI50,[28],5.59 µM
same,TGI,[28],25.8 µM
same,GI50,[53],4.17 µM
same,TGI,[53],35 µM
same,GI50,[29],5.27 µM
same,TGI,[29],56.4 µM
same,GI50,[30],4.77 µM
same,TGI,[30],89.6 µM
same,GI50,[54],3.92 µM
same,TGI,[54],42.2 µM
same,GI50,[31],1.64 µM
same,TGI,[31],12.8 µM
same,GI50,[32],8.36 µM
same,TGI,[32],95.1 µM
same,GI50,[33],3.15 µM
same,TGI,[33],19.5 µM
same,GI50,[55],8.51 µM
same,TGI,[55],51 µM
same,GI50,[34],5.46 µM
same,TGI,[34],63.9 µM
same,GI50,[35],11.7 µM
same,TGI,[35],52.7 µM
same,GI50,[36],2.01 µM
same,TGI,[36],11 µM
same,GI50,[37],2.55 µM
same,TGI,[37],22.8 µM
